Results as given in patent publication US7199113B2, “Pharmaceutically active compounds and methods of use thereof” (priority 1998, dated 2007).
pIC50: −log10 of the molar value.

Assays:
[1] = molecular target: T1, human recombinant TF/VIIa complex (lipidated) (Homo sapiens, UniProt P13726); assay: TF/VIIa-dependent FX activation assay; format: biochemical
T1 construct: Truncated recombinant human tissue factor (e.g. composed of 243 amino acids) is expressed in E. coli; host or cells: E. coli (TF)

FVIIa = molecular target: T2, FVIIa (Homo sapiens, UniProt P08709); assay: FVIIa-dependent FX activation (TF omitted); format: biochemical; details: statement on Table 2 (FIG. 2(b))
T2 construct: proteolytic cleavage of the zymogen FVII to the active serine protease FVIIa; purchased Enzyme Research Laboratories Inc
T2 sequence (P08709 213-466 limits assumed): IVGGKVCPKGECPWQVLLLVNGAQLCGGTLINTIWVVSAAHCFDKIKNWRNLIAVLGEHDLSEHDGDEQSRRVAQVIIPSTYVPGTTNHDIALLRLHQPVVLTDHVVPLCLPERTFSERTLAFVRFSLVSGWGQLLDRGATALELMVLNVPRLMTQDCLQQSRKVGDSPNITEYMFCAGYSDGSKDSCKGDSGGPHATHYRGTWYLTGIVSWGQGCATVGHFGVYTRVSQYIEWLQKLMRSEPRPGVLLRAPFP
T2 sequence (P08709 61-212 limits assumed): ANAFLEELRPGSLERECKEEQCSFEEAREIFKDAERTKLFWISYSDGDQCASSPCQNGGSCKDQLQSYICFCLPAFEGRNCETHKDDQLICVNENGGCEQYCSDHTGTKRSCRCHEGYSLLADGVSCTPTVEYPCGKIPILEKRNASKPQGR
Procedure: FVIIa alone in the presence of phospholipids and calcium is also able to activate FX, although at a very low rate. This experiment was designed to examine whether compounds 1 and 2 inhibit FVIIa-dependent FX activation if TF is omitted. […] This assay was done at relatively high FVIIa concentrations. Six microliters of compound 1(1 mM in 10% DMSO) or 10% DMSO was mixed with 40 μl of 25 mM HEPES-NaOH, 5 mM CaCl2, 150 mM NaCl, 0.1% BSA, pH 7.5 containing phosphatidylcholine (0.07 mg/ml) and phosphatidylserine (0.03 mg/ml). Then 4 μl of FVIIa (1.5 μM) and 10 μl of FX (180 nM) were added and mixed. The mixture was incubated for 1 hour at 37° C. Then 10 μl of EDTA (400 mM) was added to stop FVII activity by removing the calcium required for factor VII activity. Then 10 μl of FXa substrate S-2765 (3.2 mM) was added to measure the FXa activity generated by FVIIa. After 16 minutes incubation at 37° C., 20 μl of 50% acetic acid was added to quench the reaction. Absorbance at 405 nm was read and the percent inhibition of FVIIa-dependent FX activation was calculated from OD405 nm values in the absence and presence of compound 1.

T1 sequence (P13726 33-275 limits assumed, one chain of several): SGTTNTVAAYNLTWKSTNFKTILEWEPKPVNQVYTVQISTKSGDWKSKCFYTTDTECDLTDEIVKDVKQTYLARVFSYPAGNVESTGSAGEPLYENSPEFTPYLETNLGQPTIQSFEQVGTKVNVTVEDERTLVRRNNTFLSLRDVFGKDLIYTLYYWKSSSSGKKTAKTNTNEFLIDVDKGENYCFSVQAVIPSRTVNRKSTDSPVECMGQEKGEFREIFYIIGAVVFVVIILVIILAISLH

Question: How did the pIC50 ([1]; TF/VIIa, FX and compound added simultaneously, FX 5 nM) turn out when `O=P(O)(O)C(CNc1cccc(O)c1)P(=O)(O)O` [Compound 1, 1-(bisphosponate)-2-amino(3-hydroxyphenyl)ethyl] was run?
Answer: 4.74

Question: And the pIC50 ([1]; TF/VIIa, FX and compound added simultaneously, FX 30 nM)?
Answer: 4.48

Question: What about the pIC50 ([1]; compound preincubated with TF/VIIa 15 minutes at 37° C. prior to FX, FX 5 nM) of the same compound?
Answer: 5.08

Question: What about the “inhibition of FVIIa-dependent FX activation” value (FVIIa) of the same compound?
Answer: does not inhibit FVIIa-dependent FX activation
